From patent US20040106632A1, “Salt of thiazolidinedione and its polymorphs as antidiabetic agents and method for obtaining them” (priority 2001, published 2004)

What was measured:
[1] = stability (solid and aqueous solution); type: physicochemical
[2] = aqueous solubility; type: physicochemical
[3] = oral absorption profile; type: in vivo; settings: compared with the free base
[4] = hygroscopicity / solvate formation on purification; type: physicochemical

COc1cc(N(C)CCOc2ccc(CC3SC(=O)NC3=O)cc2)ncn1 (stereo not drawn) [Compound I, 5-(4-{2-[(6-methoxypyrimydin-4-yl)-methyl-amino]-ethoxyl}-benzyl)-thiazolidin-2,4-dione]
stability [1]: problems of stability
solubility (in words) ([2]; aqueous): problems of stability and solubility

COc1cc(N(C)CCOc2ccc(CC3SC(=O)NC3=O)cc2)ncn1.[Na] (stereo not drawn) [Sodium Salt, sodium salt of 5-(4-{2-[(6-methoxy-pyrimydin-4-yl)-methyl-amino]-ethoxy}-benzyl)-thiazolidin-2,4-dione]
oral absorption profile [3]: better oral absorption profile than the free base
stability [1]: good stability
hygroscopicity or formation of solvates [4]: without problems of hygroscopicity or formation of solvates
aqueous solubility ([2]; water): higher than 1 mg/ml
